The results in this text go back to the SangsterLogP compilation.

Molecules are shown by their SMILES.

A word on the logP: it is a log measure of how a compound divides between an organic and an aqueous phase. Consider `COc1cccc([C@]2(O)CCCC[C@H]2CN(C)C)c1` (relative stereo), for which the logP turned out to be 2.51. In turn, `CCC(=O)O[C@]1(c2ccccc2)C[C@H](C)N(C)C[C@H]1C` registered a logP of 3.13. In the case of `OC(c1ccccc1)C(O)c1ccccc1` (stereo not drawn) it was 1.91; in that of `C=CCC1CN(C)CCC1(OC(=O)CC)c1ccccc1` (stereo not drawn), 2.97; in that of `NC1C2CCC1c1ccc(C(F)(F)F)cc1C2` (stereo not drawn), 3.54. `C=C[C@H]1CN2CC[C@H]1C[C@@H]2[C@@H](O)c1ccnc2ccccc12`: the logP was found to be 2.68.

Consider `CC(=O)OC1(c2ccccc2)CCN(C)C(C)C1C` (stereo not drawn), for which the lipophilicity (logP) was found to be 2.51. For `CCC(=O)OC1(c2ccccc2)CCN(C)CC1C` (stereo not drawn), the logP was determined as 2.43. This logP and that of the molecule before are within 0.2 log units of each other. To `NC1CCc2ccccc2C1O` (stereo not drawn) belongs 0.81; to `COc1ccccc1/C=C/C(=O)O`, 2.54. To `CCC(=O)OC1(c2ccccc2)CCN(C)C(C)C1C` (stereo not drawn) belongs 2.97; to `O=[N+]([O-])c1ccc(O[C@@H]2O[C@H](CO)[C@H](O)[C@H](O)[C@H]2O)cc1`, -0.63. As to `NC1C2CCC1c1ccccc1C2` (stereo not drawn), the logP stood at 2.04.

Molecule `Cc1cc(=O)oc2ccc(O[C@@H]3O[C@H](CO)[C@@H](O)[C@H](O)[C@H]3O)cc12` gave a logP of -0.66. In the case of `NC1C2CCC1c1cc(C(F)(F)F)ccc1C2` (stereo not drawn) it was 3.45. In turn, `C[C@H](N)[C@H](O)c1ccccc1` (relative stereo) registered a logP of 0.67. In the case of `NC1C2CCC1c1ccccc12` (stereo not drawn) it was 2.01. To `NC1C2CCC1c1cccc(C(F)(F)F)c1C2` (stereo not drawn) belongs 3.41.
